For test [1], the target named is Sodium-dependent dopamine transporter (Homo sapiens, UniProt Q01959). Briefly: Antagonist activity at DAT (unknown origin) by PDSP assay.
In a further test the target is D(3) dopamine receptor (Homo sapiens, UniProt P35462). Nature of the test: Antagonist activity at dopamine D3 receptor (unknown origin) by PDSP assay.
For test [2], the target named is 5-hydroxytryptamine receptor 6 (Homo sapiens, UniProt P50406). Nature of the test: Antagonist activity at serotonin 5HT6 receptor (unknown origin) by PDSP assay.
Test [3] deals with Beta-3 adrenergic receptor (Homo sapiens, UniProt P13945). Nature of the test: Antagonist activity at adrenergic beta3 receptor (unknown origin) by PDSP assay.
The target of test [4] is T1, 5-hydroxytryptamine receptor 2C (Homo sapiens, UniProt P28335).
T1 sequence (P28335 whole entry): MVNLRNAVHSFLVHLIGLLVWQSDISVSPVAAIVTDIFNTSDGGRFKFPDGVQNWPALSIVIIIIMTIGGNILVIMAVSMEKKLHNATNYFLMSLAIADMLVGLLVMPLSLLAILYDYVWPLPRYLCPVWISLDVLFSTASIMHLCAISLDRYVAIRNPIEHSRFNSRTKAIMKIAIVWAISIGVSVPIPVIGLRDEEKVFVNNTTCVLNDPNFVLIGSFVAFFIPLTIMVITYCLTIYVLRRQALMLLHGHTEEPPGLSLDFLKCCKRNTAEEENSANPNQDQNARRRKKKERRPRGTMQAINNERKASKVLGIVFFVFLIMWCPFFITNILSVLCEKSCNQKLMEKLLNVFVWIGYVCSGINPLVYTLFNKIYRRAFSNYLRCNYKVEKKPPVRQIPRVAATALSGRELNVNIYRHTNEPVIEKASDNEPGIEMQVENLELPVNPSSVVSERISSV
Nature of the test: Antagonist activity at serotonin 5HT2C receptor (unknown origin) by PDSP assay.

Test [5] deals with T2, 5-hydroxytryptamine receptor 1A (Homo sapiens, UniProt P08908).
T2 sequence (P08908 whole entry): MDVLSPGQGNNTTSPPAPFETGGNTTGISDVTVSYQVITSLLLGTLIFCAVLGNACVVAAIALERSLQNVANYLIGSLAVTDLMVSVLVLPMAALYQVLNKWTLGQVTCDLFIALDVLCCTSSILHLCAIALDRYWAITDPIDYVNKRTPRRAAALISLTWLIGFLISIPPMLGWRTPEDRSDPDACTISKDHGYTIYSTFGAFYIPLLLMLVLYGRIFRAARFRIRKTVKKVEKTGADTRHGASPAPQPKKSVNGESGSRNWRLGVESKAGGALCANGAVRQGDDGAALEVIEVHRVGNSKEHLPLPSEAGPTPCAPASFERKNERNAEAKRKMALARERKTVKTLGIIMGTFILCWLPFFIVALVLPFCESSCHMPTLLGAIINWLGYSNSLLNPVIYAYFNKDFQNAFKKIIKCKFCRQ
Briefly: Antagonist activity at serotonin 5HT1A receptor (unknown origin) by PDSP assay.

The target of test [6] is 5-hydroxytryptamine receptor 2B (Homo sapiens, UniProt P41595). Nature of the test: Antagonist activity at serotonin 5HT2B receptor (unknown origin) by PDSP assay.
Chain of 5-hydroxytryptamine receptor 2B (P41595 whole entry): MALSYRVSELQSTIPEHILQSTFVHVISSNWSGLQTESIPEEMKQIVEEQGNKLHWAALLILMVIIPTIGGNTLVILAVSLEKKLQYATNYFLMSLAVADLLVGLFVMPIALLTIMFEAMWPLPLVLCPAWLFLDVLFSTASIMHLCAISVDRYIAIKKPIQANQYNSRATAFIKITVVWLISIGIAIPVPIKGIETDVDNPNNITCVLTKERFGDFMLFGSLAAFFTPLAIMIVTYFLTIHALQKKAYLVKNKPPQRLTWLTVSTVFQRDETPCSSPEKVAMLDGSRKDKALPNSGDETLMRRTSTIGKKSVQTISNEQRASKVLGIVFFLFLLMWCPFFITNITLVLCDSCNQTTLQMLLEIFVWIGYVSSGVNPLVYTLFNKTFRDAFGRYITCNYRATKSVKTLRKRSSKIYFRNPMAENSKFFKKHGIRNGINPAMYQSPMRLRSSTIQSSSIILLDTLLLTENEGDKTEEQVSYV
Test [7] has as its target 5-hydroxytryptamine receptor 2A (Homo sapiens, UniProt P28223). Briefly: Antagonist activity at serotonin 5HT2A receptor (unknown origin) by PDSP assay.
The next test has as its target Cholinesterase (Homo sapiens, UniProt P06276). Briefly: Inhibition of BuChE (unknown origin).
The target in test [8] is Alpha-1A adrenergic receptor (Homo sapiens, UniProt P35348). Briefly: Antagonist activity at adrenergic alpha1A receptor (unknown origin) by PDSP assay.
The target of a further test is Histamine H2 receptor (Homo sapiens, UniProt P25021). Briefly: Antagonist activity at histamine H2 receptor (unknown origin) by PDSP assay.
Chain of Histamine H2 receptor (P25021 whole entry): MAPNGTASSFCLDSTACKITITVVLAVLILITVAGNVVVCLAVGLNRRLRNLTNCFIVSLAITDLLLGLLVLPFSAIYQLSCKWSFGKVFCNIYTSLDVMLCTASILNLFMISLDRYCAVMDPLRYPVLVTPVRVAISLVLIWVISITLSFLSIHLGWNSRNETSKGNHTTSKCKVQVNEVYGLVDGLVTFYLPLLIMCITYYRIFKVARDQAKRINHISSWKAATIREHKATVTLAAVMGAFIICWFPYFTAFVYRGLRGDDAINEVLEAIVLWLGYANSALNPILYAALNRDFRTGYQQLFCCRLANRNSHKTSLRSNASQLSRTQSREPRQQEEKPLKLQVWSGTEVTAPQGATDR
Test [9] addresses Sodium-dependent serotonin transporter (Homo sapiens, UniProt P31645). Briefly: Antagonist activity at serotonin transporter (unknown origin) by PDSP assay.
Test [10] addresses Alpha-1D adrenergic receptor (Homo sapiens, UniProt P25100). Briefly: Antagonist activity at adrenergic alpha 1D receptor (unknown origin) by PDSP assay.
Test [11] addresses Alpha-2B adrenergic receptor (Homo sapiens, UniProt P18089). Nature of the test: Antagonist activity at adrenergic alpha2B receptor (unknown origin) by PDSP assay.
The next test addresses D(1A) dopamine receptor (Homo sapiens, UniProt P21728). Nature of the test: Antagonist activity at dopamine D1 receptor (unknown origin) by PDSP assay.
Test [12] deals with 5-hydroxytryptamine receptor 7 (Homo sapiens, UniProt P34969). Nature of the test: Antagonist activity at serotonin 5HT7 receptor (unknown origin) by PDSP assay.
In test [13] the target is Alpha-2A adrenergic receptor (Homo sapiens, UniProt P08913). Briefly: Antagonist activity at adrenergic alpha2A receptor (unknown origin) by PDSP assay.
Test [14] concerns the target 5-hydroxytryptamine receptor 5A (Homo sapiens, UniProt P47898). Nature of the test: Antagonist activity at serotonin 5HT5A receptor (unknown origin) by PDSP assay.
Test [15] deals with Muscarinic acetylcholine receptor M5 (Homo sapiens, UniProt P08912). Nature of the test: Antagonist activity at muscarinic M5 receptor (unknown origin) by PDSP assay.
Chain of Muscarinic acetylcholine receptor M5 (P08912 whole entry): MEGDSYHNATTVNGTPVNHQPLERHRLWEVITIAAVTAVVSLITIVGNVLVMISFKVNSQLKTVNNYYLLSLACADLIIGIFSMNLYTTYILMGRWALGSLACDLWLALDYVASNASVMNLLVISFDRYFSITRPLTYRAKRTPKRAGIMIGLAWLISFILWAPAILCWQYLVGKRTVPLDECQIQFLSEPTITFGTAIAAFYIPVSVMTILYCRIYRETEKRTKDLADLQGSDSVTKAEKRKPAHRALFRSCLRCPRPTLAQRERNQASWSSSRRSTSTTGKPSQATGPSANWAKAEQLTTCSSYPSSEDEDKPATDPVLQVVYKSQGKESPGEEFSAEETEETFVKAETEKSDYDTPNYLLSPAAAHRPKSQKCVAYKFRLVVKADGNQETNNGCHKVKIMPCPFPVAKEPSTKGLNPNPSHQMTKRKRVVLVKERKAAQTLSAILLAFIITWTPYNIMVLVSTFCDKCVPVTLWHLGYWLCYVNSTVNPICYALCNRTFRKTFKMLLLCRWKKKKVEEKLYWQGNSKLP
Test [16] deals with 5-hydroxytryptamine receptor 1B (Homo sapiens, UniProt P28222). Briefly: Antagonist activity at serotonin 5HT1B receptor (unknown origin) by PDSP assay.
In test [17] the target is Muscarinic acetylcholine receptor M3 (Homo sapiens, UniProt P20309). Nature of the test: Antagonist activity at muscarinic M3 receptor (unknown origin) by PDSP assay.
The target in test [18] is Muscarinic acetylcholine receptor M4 (Homo sapiens, UniProt P08173). Briefly: Antagonist activity at muscarinic M4 receptor (unknown origin) by PDSP assay.
Test [19] has as its target Muscarinic acetylcholine receptor M2 (Homo sapiens, UniProt P08172). Briefly: Antagonist activity at muscarinic M2 receptor (unknown origin) by PDSP assay.
Another test deals with Histamine H3 receptor (Homo sapiens, UniProt Q9Y5N1). Nature of the test: Antagonist activity at histamine H3 receptor (unknown origin) by PDSP assay.
Chain of Histamine H3 receptor (Q9Y5N1 whole entry): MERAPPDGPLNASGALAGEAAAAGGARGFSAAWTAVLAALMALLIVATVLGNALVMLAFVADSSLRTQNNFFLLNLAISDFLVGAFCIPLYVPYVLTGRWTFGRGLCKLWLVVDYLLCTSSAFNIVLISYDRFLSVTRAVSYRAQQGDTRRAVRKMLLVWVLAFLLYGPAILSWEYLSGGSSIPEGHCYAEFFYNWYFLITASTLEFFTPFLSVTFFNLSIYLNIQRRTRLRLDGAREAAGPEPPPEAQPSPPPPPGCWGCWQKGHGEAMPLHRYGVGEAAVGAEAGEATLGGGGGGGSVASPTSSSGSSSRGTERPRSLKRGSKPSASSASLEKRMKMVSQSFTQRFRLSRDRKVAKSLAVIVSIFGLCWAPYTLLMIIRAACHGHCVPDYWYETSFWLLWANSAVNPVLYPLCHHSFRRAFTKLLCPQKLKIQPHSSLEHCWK
The target of test [20] is Muscarinic acetylcholine receptor M1 (Homo sapiens, UniProt P11229). Nature of the test: Antagonist activity at muscarinic M1 receptor (unknown origin) by PDSP assay.
Test [21] deals with Alpha-2C adrenergic receptor (Homo sapiens, UniProt P18825). Nature of the test: Antagonist activity at adrenergic alpha2C receptor (unknown origin) by PDSP assay.
Chain of Alpha-2C adrenergic receptor (P18825 whole entry): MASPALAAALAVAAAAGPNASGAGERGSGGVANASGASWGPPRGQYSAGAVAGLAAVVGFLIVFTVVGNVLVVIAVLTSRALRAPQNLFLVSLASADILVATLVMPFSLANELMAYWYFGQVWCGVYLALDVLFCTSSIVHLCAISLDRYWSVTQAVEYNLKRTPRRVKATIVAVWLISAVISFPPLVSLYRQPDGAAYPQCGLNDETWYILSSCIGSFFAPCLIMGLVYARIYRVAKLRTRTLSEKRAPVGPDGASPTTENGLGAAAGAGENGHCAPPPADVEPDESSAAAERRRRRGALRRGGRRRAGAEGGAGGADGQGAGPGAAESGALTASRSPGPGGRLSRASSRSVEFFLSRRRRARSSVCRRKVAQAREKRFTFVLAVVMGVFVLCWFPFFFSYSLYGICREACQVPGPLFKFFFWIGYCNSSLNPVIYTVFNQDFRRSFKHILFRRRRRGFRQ
In another test the target is Histamine H1 receptor (Homo sapiens, UniProt P35367). Nature of the test: Antagonist activity at histamine H1 receptor (unknown origin) by PDSP assay.
Chain of Histamine H1 receptor (P35367 whole entry): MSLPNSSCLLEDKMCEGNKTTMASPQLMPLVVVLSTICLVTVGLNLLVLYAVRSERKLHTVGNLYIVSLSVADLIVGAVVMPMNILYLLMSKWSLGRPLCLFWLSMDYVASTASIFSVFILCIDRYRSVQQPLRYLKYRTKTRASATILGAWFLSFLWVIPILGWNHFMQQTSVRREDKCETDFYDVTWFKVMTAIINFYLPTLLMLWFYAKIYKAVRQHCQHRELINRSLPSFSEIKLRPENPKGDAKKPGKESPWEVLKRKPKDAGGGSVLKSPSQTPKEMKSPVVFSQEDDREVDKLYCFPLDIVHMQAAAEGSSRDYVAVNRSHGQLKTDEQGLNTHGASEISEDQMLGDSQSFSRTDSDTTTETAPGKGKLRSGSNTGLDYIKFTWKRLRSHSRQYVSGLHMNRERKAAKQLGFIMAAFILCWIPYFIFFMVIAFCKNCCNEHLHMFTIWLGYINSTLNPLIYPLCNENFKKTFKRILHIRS
The target in test [22] is 5-hydroxytryptamine receptor 3A (Homo sapiens, UniProt P46098). Nature of the test: Antagonist activity at serotonin 5HT3 receptor (unknown origin) by PDSP assay.
Test [23] concerns the target 5-hydroxytryptamine receptor 1D (Homo sapiens, UniProt P28221). Briefly: Antagonist activity at serotonin 5HT1D receptor (unknown origin) by PDSP assay.

Molecules are shown by their SMILES.

Chain of Sodium-dependent dopamine transporter (Q01959 whole entry): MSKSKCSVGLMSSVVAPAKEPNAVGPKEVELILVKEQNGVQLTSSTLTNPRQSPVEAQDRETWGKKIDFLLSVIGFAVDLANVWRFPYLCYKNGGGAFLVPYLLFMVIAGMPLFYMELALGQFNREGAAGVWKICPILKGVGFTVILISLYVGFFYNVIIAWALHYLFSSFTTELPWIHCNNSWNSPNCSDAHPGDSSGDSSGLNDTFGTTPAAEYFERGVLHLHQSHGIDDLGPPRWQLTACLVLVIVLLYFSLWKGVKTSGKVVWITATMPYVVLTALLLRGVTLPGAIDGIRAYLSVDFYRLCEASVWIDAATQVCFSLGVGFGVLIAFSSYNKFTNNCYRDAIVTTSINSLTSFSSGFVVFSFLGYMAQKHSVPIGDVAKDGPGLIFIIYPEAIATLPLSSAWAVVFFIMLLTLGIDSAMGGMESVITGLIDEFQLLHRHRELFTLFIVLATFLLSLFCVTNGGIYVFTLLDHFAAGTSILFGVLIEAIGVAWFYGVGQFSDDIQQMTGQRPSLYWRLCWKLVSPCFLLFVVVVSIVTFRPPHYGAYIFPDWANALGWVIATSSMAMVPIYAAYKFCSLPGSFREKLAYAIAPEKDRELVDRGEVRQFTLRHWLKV
Chain of 5-hydroxytryptamine receptor 2A (P28223 whole entry): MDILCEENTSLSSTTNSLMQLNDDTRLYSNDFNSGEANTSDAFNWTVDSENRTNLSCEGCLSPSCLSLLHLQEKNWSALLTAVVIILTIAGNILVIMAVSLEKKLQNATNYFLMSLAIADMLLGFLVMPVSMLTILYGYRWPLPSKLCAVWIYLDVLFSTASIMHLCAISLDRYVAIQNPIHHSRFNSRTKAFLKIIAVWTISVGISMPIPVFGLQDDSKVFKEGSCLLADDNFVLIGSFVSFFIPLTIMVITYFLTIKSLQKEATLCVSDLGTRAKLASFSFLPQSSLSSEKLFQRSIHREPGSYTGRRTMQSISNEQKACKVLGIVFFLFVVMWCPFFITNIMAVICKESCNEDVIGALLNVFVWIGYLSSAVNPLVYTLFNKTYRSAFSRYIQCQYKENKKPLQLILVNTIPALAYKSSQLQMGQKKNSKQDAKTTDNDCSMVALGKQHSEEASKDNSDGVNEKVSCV
Chain of D(3) dopamine receptor (P35462 whole entry): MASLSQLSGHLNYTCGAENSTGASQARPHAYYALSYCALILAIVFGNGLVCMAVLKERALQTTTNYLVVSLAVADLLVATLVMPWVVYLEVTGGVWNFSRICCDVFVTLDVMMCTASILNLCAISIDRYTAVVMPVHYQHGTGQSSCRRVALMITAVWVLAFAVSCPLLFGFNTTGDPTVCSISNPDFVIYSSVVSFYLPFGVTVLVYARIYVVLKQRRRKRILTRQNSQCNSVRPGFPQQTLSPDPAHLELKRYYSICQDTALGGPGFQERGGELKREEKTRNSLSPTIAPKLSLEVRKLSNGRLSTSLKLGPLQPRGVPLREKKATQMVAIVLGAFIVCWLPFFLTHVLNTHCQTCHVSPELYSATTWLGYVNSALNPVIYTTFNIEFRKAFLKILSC
Chain of Cholinesterase (P06276 whole entry): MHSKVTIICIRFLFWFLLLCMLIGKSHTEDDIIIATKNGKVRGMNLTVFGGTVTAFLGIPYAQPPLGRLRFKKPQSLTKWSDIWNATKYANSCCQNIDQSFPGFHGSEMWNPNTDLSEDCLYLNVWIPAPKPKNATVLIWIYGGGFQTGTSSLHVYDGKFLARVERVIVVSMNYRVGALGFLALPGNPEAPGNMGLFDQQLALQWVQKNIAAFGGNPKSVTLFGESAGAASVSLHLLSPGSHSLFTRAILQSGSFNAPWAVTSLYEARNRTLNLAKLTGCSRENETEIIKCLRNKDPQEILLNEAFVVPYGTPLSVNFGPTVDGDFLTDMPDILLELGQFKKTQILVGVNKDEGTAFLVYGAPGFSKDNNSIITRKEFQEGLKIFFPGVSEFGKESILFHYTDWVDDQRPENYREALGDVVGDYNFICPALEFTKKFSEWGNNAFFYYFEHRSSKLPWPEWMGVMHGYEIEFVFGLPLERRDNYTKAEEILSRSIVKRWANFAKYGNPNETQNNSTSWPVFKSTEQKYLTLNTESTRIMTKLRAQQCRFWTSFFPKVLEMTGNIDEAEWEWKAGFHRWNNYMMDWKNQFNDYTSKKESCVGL

As usually defined, the Ki is a dissociation constant, usually derived from enzyme kinetics or from competition with a known ligand. Higher therefore signals a looser hold on the target. In test [1], `O=C(c1cccc(Br)c1)N1c2ccccc2Sc2ccccc21` came in with an inhibitory constant (Ki) of 92 nM.

Turning to `CC(C(=O)N1c2ccccc2Sc2ccccc21)c1ccccc1` (stereo not drawn), the Ki at D(3) dopamine receptor was found to be 8900 nM; in [2] it was 1200 nM; in test [3], 2500 nM; in test [4] it was 390 nM; in test [5], 1100 nM; in test [6] it was 170 nM. Besides, the Ki in test [7] was found to be 180 nM.

With `O=C(C1CCCCCC1)N1c2ccccc2Sc2ccccc21`, the inhibitory constant (Ki) on Cholinesterase amounted to 860 nM; in [7], 1700 nM.

For the molecule `O=C(Cc1ccc2ccccc2c1)N1c2ccccc2Sc2ccccc21`, the inhibition constant Ki in test [8] is 330 nM; in test [2] it was 9900 nM; in test [4], 2200 nM; in [6], 2000 nM; in test [1], 6600 nM; at Cholinesterase, 30 nM.

Consider `O=C(CCCc1ccccc1)N1c2ccccc2Sc2ccccc21`, for which the inhibitory constant (Ki) on Histamine H2 receptor was determined as 7500 nM; in test [9] it was 3800 nM; in test [10], 4100 nM; in test [3], 1700 nM; in test [1], 3300 nM; in test [7], 1600 nM.

For `O=C(Oc1cccc2ccccc12)N1c2ccccc2Sc2ccccc21`, the Ki was 3900 nM in test [1] and 40 nM at Cholinesterase.

Consider `O=C(OCCN1CCCC1)N1c2ccccc2Sc2ccccc21`, for which the Ki amounted to 800 nM in test [11]; 5900 nM on D(1A) dopamine receptor; 330 nM in test [12]; 95 nM in test [13]; 2200 nM in [14]; 6 nM in test [15]. For the same molecule, the Ki in [16] was found to be 2200 nM; in test [17], 66 nM; in test [18] it was 54 nM; in test [19] it was 100 nM; on Histamine H3 receptor it was 6000 nM; in [20], 2 nM. Further, the Ki in test [21] amounted to 830 nM; on Histamine H1 receptor, 29 nM; in test [22] it was 1900 nM; on Histamine H2 receptor it was 540 nM; at D(3) dopamine receptor, 1000 nM; in test [4] it was 940 nM. Moreover, the Ki came to 1700 nM in test [5], 100 nM in test [6], 970 nM in test [1] and 2400 nM in [7].

As to `CCN(CC)CCCOC(=O)N1c2ccccc2Sc2ccccc21`, the inhibition constant (Ki) in test [15] worked out at 120 nM; in test [17] it was 170 nM; in test [18], 21 nM; in test [19] it was 220 nM; on Histamine H3 receptor it was 960 nM; in test [20] it was 64 nM. The inhibition constant (Ki) in [21] amounted to 600 nM; on Histamine H1 receptor, 430 nM; in test [22], 3900 nM; in test [23], 2700 nM; on Histamine H2 receptor, 1400 nM; on D(3) dopamine receptor it was 1000 nM. In addition, the inhibition constant Ki is 3100 nM in test [4]; 450 nM in test [5]; 630 nM in test [6]; 6000 nM in test [1]; 3600 nM in test [7].

(Values after ChEMBL document CHEMBL2401658, “Selectivity of phenothiazine cholinesterase inhibitors for neurotransmitter systems” (Bioorg Med Chem Lett, 2013).)
